# Laboratory results taken from patent US20260125346A1, “Isoquinolinone Derivatives and 4H-Quinolizinone Derivatives and Pharmaceutical Compositions Thereof for the Treatment of Disease” (BeOne Medicines I GmbH, priority 2023, published 2026).
# pIC50: −log10 of the molar value.
# Tests used:
# Format in all cases: cell-based
# [1] = tested on: WT cell line SK-BR-3; assay: Phospho-AKT (Ser473) Inhibition Assay (HTRF), SK-BR-3; conditions: Homo sapiens; SK-BR-3, 1 hour treatment; read-out: p-AKT Inhibition assay (S473) IC50 SK-BR-3
# Outline: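 SK-BR-3 (PI3Kα WT) cells seeded overnight in MEM with insulin, then treated 1 h with 11-point 1:3 dilutions (10 μM to 0.1 nM, 0.1% DMSO). Lysates read for phospho-AKT Ser473 by HTRF after 4 h antibody incubation at room temperature. IC50 from 4-parameter fit, % inhibition normalized to DMSO (max) and 10 μM GDC0077 (min).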
# [2] = tested on: WT cell line SK-BR-3; assay: Cell Proliferation Assay (CellTiter-Glo), SK-BR-3; conditions: Homo sapiens, 72 h; SK-BR-3, 3 days treatment
# Outline: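 SK-BR-3 cells treated for 3 days with compound in a 9-point series, final concentrations 10 M to 1 nM in 0.1% DMSO. Viability read by CellTiter-Glo luminescence. Relative IC50 from percent inhibition versus medium-only and DMSO controls, four-parameter logistic fit.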
# [3] = tested on: PI3Kα H1047R mutated cell line T-47D; assay: Phospho-AKT (Ser473) Inhibition Assay (HTRF), T-47D; conditions: for pIC50: Homo sapiens, T47D, T-47D, 1 hour treatment, read-out: p-AKT Inhibition assay (S473) IC50 T-47D; for Selectivity: SK-BR-3/T-47D (p-AKT): p-AKT (S473) IC50 ratio
# Outline: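 Cells seeded overnight in insulin-supplemented MEM, then treated 1 h with 11-point 1:3 compound dilutions (10 μM to 0.1 nM final, 0.1% DMSO). Lysates assayed for phospho-AKT Ser473 by HTRF; IC50 from 4-parameter logistic fit, normalised to DMSO (max) and 10 μM GDC0077 (min).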
# [4] = tested on: PI3Kα H1047R mutated cell line T-47D cells; assay: Cell Proliferation Assay (CellTiter-Glo), T-47D; conditions: for pIC50: Homo sapiens, T47D, 72 h, T-47D, 3 days treatment; for Selectivity: SK-BR-3/T-47D (cell proliferation): cell proliferation IC50 ratio
# Outline: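 T-47D cells seeded overnight at 3×10^3/well, then exposed 3 days to 9-point 1:3 dilutions, final […] to 1 nM in 0.1% DMSO. CellTiter-Glo luminescence; relative IC50 from percent inhibition versus medium-only and 0.1% DMSO controls, 4-parameter logistic fit.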
SMILES,pIC50 [1],pIC50 [2],pIC50 [3],pIC50 [4],Selectivity: SK-BR-3/T-47D (p-AKT) [3],Selectivity: SK-BR-3/T-47D (cell proliferation) [4]
"Cc1cc(C(C)Nc2cccnc2C(=O)O)c2cc(-c3ccc(F)cc3)n(C)c(=O)c2c1 (stereo not drawn) [Example 33, 3-((1-(3-(4-fluorophenyl)-2,7-dimethyl-1-oxo-1,2-dihydroisoquinolin-5-yl)ethyl)amino)picolinic acid]",5.00,< 5.00,6.57,5.80,36.6,>6.28
"Cc1cc(C(C)Nc2ccccc2C(=O)O)c2cc(-c3cccc4cn(C)nc34)n(C)c(=O)c2c1 (stereo not drawn) [Example 22, 2-((1-(2,7-dimethyl-3-(2-methyl-2H-indazol-7-yl)-1-oxo-1,2-dihydroisoquinolin-5-yl)ethyl)amino)benzoic acid]",< 5.00,< 5.00,5.76,< 5.00,>5.7,–
"CC(Nc1ccccc1C(=O)O)c1cccc2c(=O)n(C)c(C#Cc3ccccc3)cc12 (stereo not drawn) [Example 21, 2-((1-(2-methyl-1-oxo-3-(phenylethynyl)-1,2-dihydroisoquinolin-5-yl)ethyl)amino)benzoic acid]",5.23,< 5.00,7.45,5.59,165.3,>3.93
"Cc1cc([C@@H](C)Nc2ccccc2C(=O)O)c2cc(-c3ccc(-c4cnn(C)c4)cc3)n(C)c(=O)c2c1 [Example 40, (R)-2-((1-(2,7-dimethyl-3-(4-(1-methyl-1H-pyrazol-4-yl)phenyl)-1-oxo-1,2-dihydroisoquinolin-5-yl)ethyl)amino)benzoic acid]",6.09,< 5.00,7.61,7.28,33.5,>190
"Cc1cc(C(C)Nc2ccccc2C(=O)O)c2cc(-c3ccccc3C#N)n(C)c(=O)c2c1 (stereo not drawn) [Example 32, 2-((1-(3-(2-cyanophenyl)-2,7-dimethyl-1-oxo-1,2-dihydroisoquinolin-5-yl)ethyl)amino)benzoic acid]",< 5.00,< 5.00,6.58,5.61,>38,>4.07
"Cc1cc(C(C)Nc2ccccc2C(=O)O)c2cc(-c3cc(F)cc(F)c3)n(C)c(=O)c2c1 (stereo not drawn) [Example 10, 2-((1-(3-(3,5-difluorophenyl)-2,7-dimethyl-1-oxo-1,2-dihydroisoquinolin-5-yl)ethyl)amino)benzoic acid]",5.56,< 5.00,7.09,6.89,33.3,>78
"Cc1cc(C(C)Nc2ccccc2C(=O)O)c2cc(-c3cncc(F)c3)n(C)c(=O)c2c1 (stereo not drawn) [Example 38, 2-((1-(3-(5-fluoropyridin-3-yl)-2,7-dimethyl-1-oxo-1,2-dihydroisoquinolin-5-yl)ethyl)amino)benzoic acid]",< 5.00,< 5.00,6.55,6.67,>35,>46
"Cc1cc(C(C)Nc2ccccc2C(=O)O)c2cc(-c3nc4ccccc4s3)n(C)c(=O)c2c1 (stereo not drawn) [Example 17, 2-((1-(3-(benzo[d]thiazol-2-yl)-2,7-dimethyl-1-oxo-1,2-dihydroisoquinolin-5-yl)ethyl)amino)benzoic acid]",6.10,< 5.00,7.23,6.13,13.5,>13

# The next lines start with results.
pIC50 [1],pIC50 [2],pIC50 [3],pIC50 [4],SMILES,Selectivity: SK-BR-3/T-47D (p-AKT) [3],Selectivity: SK-BR-3/T-47D (cell proliferation) [4]
5.69,< 5.00,7.07,5.86,"Cc1cc(C(C)Nc2ccccc2C(=O)O)c2cc(-c3ccn(-c4ccccc4)c3)n(C)c(=O)c2c1 (stereo not drawn) [Example 77, 2-((1-(2,7-dimethyl-1-oxo-3-(1-phenyl-1H-pyrrol-3-yl)-1,2-dihydroisoquinolin-5-yl)ethyl)amino)benzoic acid]",24.2,>7.1
< 5.00,< 5.00,5.81,6.53,"Cc1cc(C(C)Nc2ccccc2C(=O)O)c2cc(-c3ccc(C(C)(C)O)nc3)n(C)c(=O)c2c1 (stereo not drawn) [Example 55, 2-((1-(3-(6-(2-hydroxypropan-2-yl)pyridin-3-yl)-2,7-dimethyl-1-oxo-1,2-dihydroisoquinolin-5-yl)ethyl)amino)benzoic acid]",>6.4,>34
5.51,< 5.00,7.16,6.60,"Cc1cc(C(C)Nc2ccccc2C(=O)O)c2cc(C#Cc3cnn(C)c3)n(C)c(=O)c2c1 (stereo not drawn) [Example 80, 2-((1-(2,7-dimethyl-3-((1-methyl-1H-pyrazol-4-yl)ethynyl)-1-oxo-1,2-dihydroisoquinolin-5-yl)ethyl)amino)benzoic acid]",44.1,>39.4
5.32,< 5.00,7.24,6.69,"Cc1cc(C(C)Nc2ccccc2C(=O)O)c2cc(-c3ccc(F)cc3)n(CC#N)c(=O)c2c1 (stereo not drawn) [Example 63, 2-((1-(2-(cyanomethyl)-3-(4-fluorophenyl)-7-methyl-1-oxo-1,2-dihydroisoquinolin-5-yl)ethyl)amino)benzoic acid]",83.3,>49
5.25,< 5.00,6.99,6.57,"Cc1cc(C(C)Nc2ccccc2C(=O)O)c2cc(-c3ccc(F)cc3)n(-c3nccs3)c(=O)c2c1 (stereo not drawn) [Example 71, 2-((1-(3-(4-fluorophenyl)-7-methyl-1-oxo-2-(thiazol-2-yl)-1,2-dihydroisoquinolin-5-yl)ethyl)amino)benzoic acid]",55.0,>34
5.36,< 5.00,6.51,7.06,"COC1(c2ccc(-c3cc4c(C(C)Nc5ccccc5C(=O)O)cc(C)cc4c(=O)n3C)cc2)CCOCC1 (stereo not drawn) [Example 74, 2-((1-(3-(4-(4-methoxytetrahydro-2H-pyran-4-yl)phenyl)-2,7-dimethyl-1-oxo-1,2-dihydroisoquinolin-5-yl)ethyl)amino)benzoic acid]",14.3,>115
5.02,< 5.00,6.48,6.00,"Cc1cc(C(C)Nc2ccccc2C(=O)O)c2cc(-c3ccc(F)cc3)n(C3CCOCC3)c(=O)c2c1 (stereo not drawn) [Example 96, 2-((1-(3-(4-fluorophenyl)-7-methyl-1-oxo-2-(tetrahydro-2H-pyran-4-yl)-1,2-dihydroisoquinolin-5-yl)ethyl)amino)benzoic acid]",28.8,>10
< 5.00,< 5.00,6.29,7.02,"Cc1cc([C@@H](C)Nc2ccccc2C(=O)O)c2cc(-c3ccc(C(C)(C)O)nc3)n(C)c(=O)c2c1 [Example 56, (R)-2-((1-(3-(6-(2-hydroxypropan-2-yl)pyridin-3-yl)-2,7-dimethyl-1-oxo-1,2-dihydroisoquinolin-5-yl)ethyl)amino)benzoic acid]",>19.55,>104
< 5.00,< 5.00,< 5.00,< 5.00,"Cc1cc(C(C)Nc2ccccc2C(=O)O)c2cc(-c3ccc(P(C)(C)=O)cc3)n(C)c(=O)c2c1 (stereo not drawn) [Example 79, 2-((1-(3-(4-(dimethylphosphoryl)phenyl)-2,7-dimethyl-1-oxo-1,2-dihydroisoquinolin-5-yl)ethyl)amino)benzoic acid]",–,–
